Activity calls are given as the source filed them. The calls are words filed in the database; no cut-off is given here.
What was measured:
Type in all cases: functional, organism-based
[1] = tested on: Rhizopus arrhizus; assay: Antifungal activity against Rhizopus oryzae 99-880 infected in diabetic ketoacidotic BALB/c mouse assessed as improved time to death at 60 mg/kg/day, po administered 24 hrs post infection for 4 days
[2] = tested on: Rhizopus arrhizus; assay: Antifungal activity against Rhizopus oryzae 99-880 infected in diabetic ketoacidotic mouse assessed as mouse survival at 30 mg/kg/day, po administered 24 hrs post infection for 4 days
[3] = tested on: Rhizopus arrhizus; assay: Antifungal activity against Rhizopus oryzae 99-880 infected in diabetic ketoacidotic mouse assessed as mouse survival at 10 mg/kg/day, po administered 24 hrs post infection for 4 days
[4] = tested on: Rhizopus arrhizus; assay: Antifungal activity against Rhizopus oryzae 99-880 infected in diabetic ketoacidotic mouse assessed as mouse survival at 60 mg/kg/day, po administered 24 hrs post infection for 4 days
[5] = tested on: Rhizopus arrhizus; assay: Antifungal activity against Rhizopus oryzae 99-880 infected in neutropenic BALB/c mouse assessed as improved time to death at 60 mg/kg/day, po administered 24 hrs post infection for 4 days
[6] = tested on: Rhizopus arrhizus; assay: Antifungal activity against Rhizopus oryzae 99-880 infected in diabetic ketoacidotic mouse assessed as reduction of fungal burden in kidneys at 60 mg/kg/day, po administered 8 hrs post infection for 3 days; details: Kidney
[7] = tested on: Rhizopus arrhizus; assay: Antifungal activity against Rhizopus oryzae 99-880 infected in diabetic ketoacidotic mouse assessed as reduction of fungal burden in brain at 60 mg/kg/day, po administered 8 hrs post infection for 3 days
[8] = tested on: Rhizopus arrhizus; assay: Antifungal activity against Rhizopus oryzae 99-880 infected in diabetic ketoacidotic BALB/c mouse assessed as improved time to death at 30 mg/kg/day, po administered 24 hrs post infection for 4 days
[9] = tested on: Rhizopus arrhizus; assay: Antifungal activity against Rhizopus oryzae 99-880 infected in diabetic ketoacidotic BALB/c mouse assessed as improved time to death at 10 mg/kg/day, po administered 24 hrs post infection for 4 days
[10] = tested on: Rhizopus arrhizus; assay: Antifungal activity against Rhizopus oryzae 99-880 infected in neutropenic mouse assessed as reduction of fungal burden in kidneys at 60 mg/kg/day, po administered 8 hrs post infection for 3 days; details: Kidney
[11] = tested on: Rhizopus arrhizus; assay: Antifungal activity against Rhizopus oryzae 99-880 infected in neutropenic mouse assessed as reduction of fungal burden in brain at 60 mg/kg/day, po administered 8 hrs post infection for 3 days

CC[C@@H]([C@H](C)O)n1ncn(-c2ccc(N3CCN(c4ccc(OC[C@@H]5CO[C@@](Cn6cncn6)(c6ccc(F)cc6F)C5)cc4)CC3)cc2)c1=O
Activity [1]: Active | Activity [2]: inactive | Activity [3]: inactive | Activity [4]: inactive | Activity [5]: inactive | Activity [6]: inactive | Activity [7]: inactive | Activity [8]: inactive | Activity [9]: inactive | Activity [10]: inactive | Activity [11]: inactive

From ChEMBL document CHEMBL1629570, “Posaconazole mono- or combination therapy for treatment of murine zygomycosis” (Antimicrob Agents Chemother, 2009)
